Measured values taken from the supplement of paper PMC10307832.

Experiments:
Assay in all cases: relative viability (nuclei count vs DMSO), 5 days (fraction); higher = more cells survive
RU-SKI 43 + OSI-027 = compound: CC[C@@H](C)CNCC(=O)N1CCC2=C([C@@H]1COC3=CC=CC(=C3)C)C=CS2 [RU-SKI 43] + COc1cccc2cc(-c3nc([C@H]4CC[C@H](C(=O)O)CC4)n4ncnc(N)c34)[nH]c12 [OSI-027] (partner 0.5 µM)
Outline: (§1)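 Lung cancer cell lines in 1536-well plates were dosed by pin tool the day after seeding, either with one drug alone or with a fixed anchor-drug dose plus five library-drug doses (not always all listed) in √10 steps. After 5 days, cells were fixed and their nuclei stained in one step (final 0.05% Triton X-100, 1% formaldehyde, 1 ug/ml Hoechst), then counted on 4× images. Relative viability is the nuclei count in treated wells divided by that in vehicle wells. Values are medians of duplicate plates.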

RU-SKI 43 + Phenformin = compound: CC[C@@H](C)CNCC(=O)N1CCC2=C([C@@H]1COC3=CC=CC(=C3)C)C=CS2 [RU-SKI 43] + N=C(N)NC(=N)NCCc1ccccc1 [Phenformin] (partner 250 µM)
Outline: as §1

Irinotecan + Bortezomib = compound: CCc1c2c(nc3ccc(OC(=O)N4CCC(N5CCCCC5)CC4)cc13)-c1cc3c(c(=O)n1C2)COC(=O)[C@]3(O)CC [Irinotecan] + CC(C)C[C@H](NC(=O)[C@H](Cc1ccccc1)NC(=O)c1cnccn1)B(O)O [Bortezomib] (partner 0.002 µM)
Outline: as §1

MK-8033 + Bortezomib = compound: Cn1cc(-c2cnc3ccc4ccc(CS(=O)(=O)NCc5ccccn5)cc4c(=O)c3c2)cn1 [MK-8033] + CC(C)C[C@H](NC(=O)[C@H](Cc1ccccc1)NC(=O)c1cnccn1)B(O)O [Bortezomib] (partner 0.002 µM)
Outline: as §1

Cell Line | relative viability (RU-SKI 43 + OSI-027; first compound 0.1 µM) | relative viability (RU-SKI 43 + OSI-027; first compound 0.3162 µM) | relative viability (RU-SKI 43 + OSI-027; first compound 1 µM) | relative viability (RU-SKI 43 + OSI-027; first compound 3.162 µM) | relative viability (RU-SKI 43 + OSI-027; first compound 10 µM) | relative viability (RU-SKI 43 + Phenformin; first compound 0.1 µM) | relative viability (RU-SKI 43 + Phenformin; first compound 0.3162 µM) | relative viability (RU-SKI 43 + Phenformin; first compound 1 µM) | relative viability (RU-SKI 43 + Phenformin; first compound 3.162 µM) | relative viability (RU-SKI 43 + Phenformin; first compound 10 µM) | relative viability (Irinotecan + Bortezomib; first compound 2 µM) | relative viability (Irinotecan + Bortezomib; first compound 6.325 µM) | relative viability (Irinotecan + Bortezomib; first compound 20 µM) | relative viability (MK-8033 + Bortezomib; first compound 0.02 µM) | relative viability (MK-8033 + Bortezomib; first compound 0.06325 µM) | relative viability (MK-8033 + Bortezomib; first compound 0.2 µM) | relative viability (MK-8033 + Bortezomib; first compound 0.6325 µM) | relative viability (MK-8033 + Bortezomib; first compound 2 µM) | relative viability (Irinotecan + Bortezomib; first compound 0.6325 µM)
201T | 0.834 | 0.709 | 1.06 | 0.69 | 0.458 | 0.48 | 0.437 | 0.464 | 0.443 | 0.442 | 1.12 | 1.06 | 0.942 | 1.13 | 1.09 | 1.08 | 1.07 | 1.12 | 
A549 |  |  |  |  |  | 0.186 | 0.16 | 0.156 | 0.113 | 0.143 |  |  |  |  |  |  |  |  | 
A-427 | 0.471 | 0.345 | 0.546 | 0.507 | 0.43 | 0.335 | 0.308 | 0.44 | 0.29 | 0.305 | 0.427 | 0.198 | 0.187 | 0.98 | 1.11 | 1.02 | 0.968 | 0.954 | 
ABC-1 | 0.541 | 0.385 | 0.554 | 0.52 | 0.473 | 0.189 | 0.239 | 0.227 | 0.255 | 0.213 | 0.276 | 0.324 | 0.103 | 0.307 | 0.263 | 0.319 | 0.337 | 0.313 | 
BEN | 0.31 | 0.292 | 0.306 | 0.302 | 0.33 | 0.26 | 0.283 | 0.238 | 0.262 | 0.267 | 0.561 | 0.218 | 0.296 | 0.937 | 0.751 | 0.578 | 0.631 | 0.807 | 0.547
CAL-12T | 0.612 | 0.447 | 0.721 | 0.911 | 0.543 | 0.645 | 0.65 | 0.616 | 0.596 | 0.589 | 0.978 | 0.491 | 0.324 | 0.935 | 0.946 | 0.876 | 1.16 | 1.01 | 0.944
COR-L23 | 0.718 | 0.99 | 0.865 | 0.881 | 0.614 | 0.426 | 0.544 | 0.46 | 0.553 | 0.421 | 0.396 | 0.211 | 0.113 | 0.966 | 0.797 | 0.868 | 0.971 | 1.02 | 0.506
Calu-6 |  |  |  |  |  |  |  |  |  |  | 0.551 | 0.296 | 0.114 | 0.959 | 1.03 | 1.04 | 0.955 | 1.01 | 0.816
EBC-1 |  |  |  |  |  |  |  |  |  |  | 0.437 | 0.474 | 0.143 | 0.532 | 0.489 | 0.597 | 0.563 | 0.309 | 0.421
IA-LM |  |  |  |  |  |  |  |  |  |  | 0.355 | 0.197 | 0.0773 | 0.791 | 0.746 | 0.83 | 0.782 | 0.802 | 0.722
LK-2 | 0.182 | 0.169 | 0.227 | 0.177 | 0.183 | 0.484 | 0.404 | 0.505 | 0.811 | 0.501 |  |  |  |  |  |  |  |  | 
NCI-H358 | 0.597 | 0.642 | 0.975 | 0.865 | 0.564 | 0.305 | 0.432 | 0.402 | 0.436 | 0.271 |  |  |  |  |  |  |  |  | 
NCI-H522 | 0.823 | 0.726 | 0.71 | 0.708 | 0.716 | 0.663 | 0.746 | 0.749 | 0.647 | 0.684 |  |  |  |  |  |  |  |  | 
NCI-H1299 |  |  |  |  |  |  |  |  |  |  | 0.824 | 0.487 | 0.415 | 1.03 | 0.997 | 1.03 | 1.05 | 1 | 0.932
NCI-H1395 | 0.717 | 0.684 | 0.747 | 0.558 | 0.6 | 0.485 | 0.453 | 0.476 | 0.421 | 0.433 |  |  |  |  |  |  |  |  | 
NCI-H1623 | 0.435 | 0.421 | 0.428 | 0.443 | 0.448 | 0.629 | 0.564 | 0.619 | 0.583 | 0.53 |  |  |  |  |  |  |  |  | 
NCI-H1648 |  |  | 0.255 | 0.251 | 0.221 |  |  |  |  |  |  |  |  |  |  |  |  |  | 
NCI-H1703 |  |  |  |  |  |  |  |  |  |  | 0.426 | 0.33 | 0.112 | 0.401 | 0.302 | 0.268 | 0.307 | 0.298 | 0.267
NCI-H1793 | 0.257 | 0.21 | 0.348 | 0.28 | 0.257 | 0.401 | 0.391 | 0.464 | 0.323 | 0.3 |  |  |  |  |  |  |  |  | 
NCI-H1944 | 0.428 | 0.397 | 0.503 | 0.445 | 0.404 | 0.214 | 0.21 | 0.225 | 0.213 | 0.177 |  |  |  |  |  |  |  |  | 
NCI-H2170 | 0.709 | 0.745 | 0.761 | 0.809 | 0.667 | 0.462 | 0.417 | 0.395 | 0.431 | 0.403 |  |  |  |  |  |  |  |  | 
NCI-H2342 | 0.541 | 0.594 | 0.622 | 0.641 | 0.62 | 0.606 | 0.562 | 0.584 | 0.528 | 0.634 |  |  |  |  |  |  |  |  | 
SK-MES-1 | 0.491 | 0.65 | 0.737 | 0.791 | 0.569 | 0.645 | 0.778 | 0.725 | 0.716 | 0.63 |  |  |  |  |  |  |  |  | 
SW 900 | 0.684 | 0.595 | 0.782 | 0.604 | 0.53 | 0.626 | 0.64 | 0.785 | 0.687 | 0.611 |  |  |  |  |  |  |  |  | 
